Reference: patent USRE42890E1, “Furazanobenzimidazoles” (Basilea Pharmaceutica AG, priority 2003, dated 2011)

Key:
HeLa = test: MTS proliferation assay, HeLa; format: cell-based, human; conditions: 72 h incubation, read-out: MTS proliferation assay IC 50 HeLa
Summary of the method: (§1)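 Absorbance at 492 nm after 3 h with MTS reagent gave the proliferation read-out. Before that, cells in RPMI-1640 complete medium (5% or 10% FCS) were treated 72 h with compound at four final concentrations, 0.3 to 10 μM.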

[1] = tested on: adherent cells or suspension cells; test: Hoechst 33342 nuclear staining (fraction of apoptotic nuclei); format: cell-based; design: key: 0 relating to no activity; 1 relating to weak activity comprising less than 70% of the cells; score 2 relating to strong activity comprising more than 70% of the cells
HT1080 = test: MTS proliferation assay, HT1080; format: cell-based, human; conditions: HT1080, 72 h incubation; read-out: MTS proliferation assay IC 50 HT1080
Summary of the method: as §1

Jily = test: MTS proliferation assay, Jily; format: cell-based; conditions: 72 h incubation, read-out: MTS proliferation assay IC 50 Jily
Summary of the method: (§2)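 Read-out: MTS absorbance at 492 nm after 3 h reagent incubation. Before that, cells grew 72 h at 37° C/7.5% CO2 with test compounds at final concentrations of 10 μM, 3 μM, 1 μM and 0.3 μM, added 24 h post-seeding.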

MRC5 = test: MTS proliferation assay, MRC5; format: cell-based; conditions: MRC5, 72 h incubation; read-out: MTS proliferation assay IC 50 MRC5
Summary of the method: as §2

Jurkat = test: MTS proliferation assay, Jurkat; format: cell-based, human; conditions: 72 h incubation, read-out: MTS proliferation assay IC 50 Jurkat
Summary of the method: as §1

Row | IC50 (HeLa) | IC50 (HT1080) | IC50 (Jurkat) | SMILES | Hoechst 33342 nuclear staining score ([1]; HeLa, conc 0.01 μm) | Hoechst 33342 nuclear staining score ([1]; HeLa, conc 0.1 μm) | Hoechst 33342 nuclear staining score ([1]; HeLa, conc 1 μm) | Hoechst 33342 nuclear staining score ([1]; Jily, conc 0.01 μm) | Hoechst 33342 nuclear staining score ([1]; Jily, conc 0.1 μm) | Hoechst 33342 nuclear staining score ([1]; Jily, conc 1 μm) | Hoechst 33342 nuclear staining score ([1]; Jurkat, conc 0.01 μm) | Hoechst 33342 nuclear staining score ([1]; Jurkat, conc 0.1 μm) | Hoechst 33342 nuclear staining score ([1]; Jurkat, conc 1 μm) | Hoechst 33342 nuclear staining score ([1]; MRC5, conc 0.01 μm) | Hoechst 33342 nuclear staining score ([1]; MRC5, conc 0.1 μm) | Hoechst 33342 nuclear staining score ([1]; MRC5, conc 1 μm) | Hoechst 33342 nuclear staining score ([1]; PBLs, conc 0.01 μm) | Hoechst 33342 nuclear staining score ([1]; PBLs, conc 0.1 μm) | Hoechst 33342 nuclear staining score ([1]; PBLs, conc 1 μm) | IC50 (Jily) | IC50 (MRC5) | also measured
1 | 10 to 100 nM | 10 to 100 nM | < 10 nM | N#CCCNc1nonc1-c1nc2ccccc2n1CC(=O)c1ccc2ccccc2c1 [Example 46] | 0 | 0 | 2 (score 2 relating to strong activity comprising more than 70% of the cells) | 0 | 2 (score 2 relating to strong activity comprising more than 70% of the cells) | 2 (score 2 relating to strong activity comprising more than 70% of the cells) | 0 | 2 (score 2 relating to strong activity comprising more than 70% of the cells) | 2 (score 2 relating to strong activity comprising more than 70% of the cells) | 0 | 0 | 2 (score 2 relating to strong activity comprising more than 70% of the cells) | 0 | 0 | 0 | 10 to 100 nM | 100 to 1000 nM | Hoechst 33342 nuclear staining score ([1]; H460, conc 0.01 μm): 0; Hoechst 33342 nuclear staining score ([1]; H460, conc 0.1 μm): 0; Hoechst 33342 nuclear staining score ([1]; H460, conc 1 μm): 2 (score 2 relating to strong activity comprising more than 70% of the cells)
2 | 100 to 1000 nM | 100 to 1000 nM | 100 to 1000 nM | Nc1nonc1-c1nc2ccccc2n1CC(=O)c1ccc(C(F)(F)F)cc1 [Example 43] | 0 | 0 | 1 (1 relating to weak activity comprising less than 70% of the cells) | 0 | 0 | 1 (1 relating to weak activity comprising less than 70% of the cells) | 0 | 0 | 2 (score 2 relating to strong activity comprising more than 70% of the cells) | 0 | 0 | 1 (1 relating to weak activity comprising less than 70% of the cells) | 0 | 0 | 0 | 100 to 1000 nM | 100 to 1000 nM | –
3 | 100 to 1000 nM | 100 to 1000 nM | 100 to 1000 nM | COc1cc(C(=O)Cn2c(-c3nonc3N)nc3ccccc32)ccc1OC(C)=O [Example 75] | 0 | 0 | 1 (1 relating to weak activity comprising less than 70% of the cells) | 0 | 0 | 2 (score 2 relating to strong activity comprising more than 70% of the cells) | 0 | 0 | 2 (score 2 relating to strong activity comprising more than 70% of the cells) | 0 | 0 | 1 (1 relating to weak activity comprising less than 70% of the cells) | 0 | 0 | 0 | 100 to 1000 nM | 100 to 1000 nM | Hoechst 33342 nuclear staining score ([1]; H460, conc 0.01 μm): 0; Hoechst 33342 nuclear staining score ([1]; H460, conc 0.1 μm): 0; Hoechst 33342 nuclear staining score ([1]; H460, conc 1 μm): 2 (score 2 relating to strong activity comprising more than 70% of the cells)
4 | 100 to 1000 nM | 100 to 1000 nM | 100 to 1000 nM | Nc1nonc1-c1nc2ccccc2n1CC(=O)c1cccc2ccccc12 [Example 41] | 0 | 0 | 2 (score 2 relating to strong activity comprising more than 70% of the cells) | 0 | 0 | 2 (score 2 relating to strong activity comprising more than 70% of the cells) | 0 | 0 | 2 (score 2 relating to strong activity comprising more than 70% of the cells) | 0 | 0 | 0 | 0 | 0 | 1 (1 relating to weak activity comprising less than 70% of the cells) | 100 to 1000 nM | 100 to 1000 nM | –
5 | 10 to 100 nM | 10 to 100 nM | 10 to 100 nM | Nc1nonc1-c1nc2ccccc2n1COc1ccc(Br)cc1 [Example 89] | 0 | 2 (score 2 relating to strong activity comprising more than 70% of the cells) | 2 (score 2 relating to strong activity comprising more than 70% of the cells) | 0 | 2 (score 2 relating to strong activity comprising more than 70% of the cells) | 2 (score 2 relating to strong activity comprising more than 70% of the cells) | 0 | 2 (score 2 relating to strong activity comprising more than 70% of the cells) | 2 (score 2 relating to strong activity comprising more than 70% of the cells) | 0 | 2 (score 2 relating to strong activity comprising more than 70% of the cells) | 2 (score 2 relating to strong activity comprising more than 70% of the cells) | 0 | 0 | 0 | 10 to 100 nM | 100 to 1000 nM | Hoechst 33342 nuclear staining score ([1]; H460, conc 0.01 μm): 0; Hoechst 33342 nuclear staining score ([1]; H460, conc 0.1 μm): 2 (score 2 relating to strong activity comprising more than 70% of the cells); Hoechst 33342 nuclear staining score ([1]; H460, conc 1 μm): 2 (score 2 relating to strong activity comprising more than 70% of the cells)
6 | 100 to 1000 nM | 10 to 100 nM | 10 to 100 nM | Nc1ccc(C(=O)Cn2c(-c3nonc3N)nc3ccccc32)cc1.O=C(O)C(=O)O [Example 62] | 0 | 2 (score 2 relating to strong activity comprising more than 70% of the cells) | 2 (score 2 relating to strong activity comprising more than 70% of the cells) | 0 | 2 (score 2 relating to strong activity comprising more than 70% of the cells) | 2 (score 2 relating to strong activity comprising more than 70% of the cells) | 0 | 2 (score 2 relating to strong activity comprising more than 70% of the cells) | 2 (score 2 relating to strong activity comprising more than 70% of the cells) | 0 | 2 (score 2 relating to strong activity comprising more than 70% of the cells) | 2 (score 2 relating to strong activity comprising more than 70% of the cells) | 0 | 0 | 0 | 10 to 100 nM | 10 to 100 nM | Hoechst 33342 nuclear staining score ([1]; H460, conc 0.01 μm): 0; Hoechst 33342 nuclear staining score ([1]; H460, conc 0.1 μm): 2 (score 2 relating to strong activity comprising more than 70% of the cells); Hoechst 33342 nuclear staining score ([1]; H460, conc 1 μm): 2 (score 2 relating to strong activity comprising more than 70% of the cells)
